Values after ≈ are worked out from the molar mass of the structure shown. Blank lines part the entries; values can stand above or below the molecule they belong to.
What was measured:
[1] = Solubility of griseofulvin in HBSS (centrifugation, HPLC of supernatant); assay type: physicochemical; conditions: Hank's Balanced Salt Solution (HBSS), aqueous buffer, thermodynamic from solid, 37° C., 2 h mixing, API/excipient 1/3, total dispersed API 2,500 μg/mL, 16,000 g 10 min, read-out: water solubility of griseofulvin (concentration in supernatant)
Experimental: The mixing time was 2 h before subjecting the dispersion to centrifugation to collect supernatant for griseofulvin quantification.
Thereafter, the dispersions were centrifuged at 16,000 g for 10 min, and the supernatants were collected for griseofulvin quantification using HPLC. The concentration of griseofulvin in the supernatant was considered as its water solubility.

[2] = Solubility of itraconazole in HBSS (centrifugation, HPLC of supernatant); assay type: physicochemical; conditions: Hank's Balanced Salt Solution (HBSS), aqueous buffer, thermodynamic from solid, 20° C., 10 min vortex, API/excipient 1/3, total dispersed API 2,500 μg/mL, 16,000 g 10 min, read-out: water solubility of itraconazole (concentration in supernatant)
Experimental: (§1) FIG. 6 provides a graph showing the solubility of itraconazole when incorporated with OHPP, HPMCAS, and Soluplus, as compared with that of itraconazole alone. The ratio between itraconazole and excipient was 1/3, with total dispersed itraconazole of 2,500 μg/mL in HBSS buffer (20° C.). The mixing time was 10 min before subjecting the dispersion to centrifugation to collect supernatant for itraconazole quantification.
Thereafter, the dispersions were centrifuged at 16,000 g for 10 min, and the supernatants were collected for itraconazole quantification using HPLC. The concentration of itraconazole in the supernatant was considered as its water solubility.

physchem = assay type: physicochemical
Experimental: as §1, with “7” for “6”, “curcumin” for “itraconazole”, “1/9,” for “1/3,”, “1,000” for “2,500”, “(37°” for “(20°”, “2 h” for “10 min”
Thereafter, the dispersions were centrifuged at 16,000 g for 10 min, and the supernatants were collected for curcumin quantification using HPLC. The concentration of curcumin in the supernatant was considered as its water solubility.

[3] = Solubility of paclitaxel in HBSS (centrifugation, HPLC of supernatant); assay type: physicochemical; conditions: Hank's Balanced Salt Solution (HBSS), aqueous buffer, thermodynamic from solid, 37° C., 2 h mixing, API/excipient 1/3, total dispersed API 2,500 μg/mL, 16,000 g 10 min, read-out: water solubility of paclitaxel (concentration in supernatant)
Experimental: The mixing time was 2 h before subjecting the dispersion to centrifugation to collect supernatant for paclitaxel quantification.
Thereafter, the dispersions were centrifuged at 16,000 g for 10 min, and the supernatants were collected for paclitaxel quantification using HPLC. The concentration of paclitaxel in the supernatant was considered as its water solubility.

[4] = Solubility of celecoxib in HBSS (centrifugation, HPLC of supernatant); assay type: physicochemical; conditions: Hank's Balanced Salt Solution (HBSS), aqueous buffer, thermodynamic from solid, 37° C., 2 h mixing, API/excipient 1/5, total dispersed API 1,000 μg/mL, 16,000 g 10 min, read-out: water solubility of celecoxib (concentration in supernatant)
Experimental: FIG. 8 provides a graph showing the solubility of celecoxib when incorporated with OHPP, HPMCAS, and Soluplus, as compared with that of celecoxib alone. The ratios between celecoxib and each excipient was 1/5, with total dispersed API of 1,000 μg/mL in HBSS buffer (37° C.). The mixing time was 2 h before subjecting the dispersion to centrifugation to collect supernatant for celecoxib quantification. The weight ratio of celecoxib, OHPP, and HPMCAS was 1, 3, and 2 respectively for the Cel-OHPP-HPMCAS preparation.
Thereafter, the dispersions were centrifuged at 16,000 g for 10 min, and the supernatants were collected for celecoxib quantification using HPLC. The concentration of celecoxib in the supernatant was considered as its water solubility.

[5] = Solubility of docetaxel in HBSS (centrifugation, HPLC of supernatant); assay type: physicochemical; conditions: Hank's Balanced Salt Solution (HBSS), aqueous buffer, thermodynamic from solid, 20° C., 10 min vortex, API/excipient 1/3, total dispersed API 2,500 μg/mL, 16,000 g 10 min, read-out: water solubility of docetaxel (concentration in supernatant)
Experimental: as §1, with “5” for “6”, “docetaxel” for “itraconazole”
Thereafter, the dispersions were centrifuged at 16,000 g for 10 min, and the supernatants were collected for docetaxel quantification using HPLC. The concentration of docetaxel in the supernatant was considered as its water solubility.

[6] = Solubility of niclosamide in HBSS (centrifugation, HPLC of supernatant); assay type: physicochemical; conditions: Hank's Balanced Salt Solution (HBSS), aqueous buffer, thermodynamic from solid, 37° C., 2 h mixing, API/excipient 1/3, total dispersed API 2,500 μg/mL, 16,000 g 10 min, read-out: water solubility of niclosamide (concentration in supernatant)
Experimental: FIG. 2 provides a graph showing the solubility of niclosamide when incorporated with OHPP, HPMCAS, and Soluplus (Soluplus®, BASF), as compared with that of niclosamide alone. The ratio between niclosamide and excipient was 1/3, with total dispersed API of 2,500 μg/mL in HBSS buffer (37° C.). The mixing time was 2 h before subjecting the dispersion to centrifugation to collect supernatant for API quantification.
Thereafter, the dispersions were centrifuged at 16,000 g for 10 min, and the supernatants were collected for niclosamide quantification using HPLC. The concentration of niclosamide in the supernatant was considered as its water solubility.

Experimental for Caco-2 cell monolayer: Nic-1000 and Nic-100: supernatant from centrifuged dispersion of pure niclosamide in HBSS at dispersing dose of 1000 and 100 μg/mL, respectively. Cel-1000 and Cel-100: supernatant from centrifuged dispersion of pure celecoxib in HBSS at dispersing dose of 1000 and 100 μg/mL, respectively. Nic-OHPP-100: supernatant from centrifuged dispersion of Nic-OHPP in HBSS at dispersing dose of 100 μg/mL (for pure niclosamide). Cel-OHPP-HPMCAS-100: supernatant of Cel-OHPP-HPMCAS dispersed in HBSS buffer at 100 μg/mL.
Caco-2 cells were seeded in the inserts with tissue-culture-treated polyester membranes (Transwells, 0.4 μm pore size, Corning) at a density of 1×10^4 cells/well. After seeding, the medium was changed every other day until the day of the permeation test. All tests were performed on day 21 after seeding. For the test, the culture medium was removed and the cells were washed twice with PBS buffer. The cells were then equilibrated in HBSS for 15 min prior to each study, and then apical and basolateral solution were aspirated.
To measure the apical-to-basolateral permeation of API, 0.5 mL of each test solution was added to the apical compartment, and the basolateral compartment received 1.5 mL HBSS. As a control, reference cells were incubated with 0.5 mL blank HBSS on the apical side, while the basolateral side received 1.5 mL of HBSS. All cultures were incubated in an incubator (5% CO2, 37° C.) for 2 h. After the incubation, the apical and the basolateral solutions were collected respectively and their amounts of API were determined using HPLC.
The loaded dispersions were prepared in two steps: (1) dispersing API-excipient complex solid and API alone in HBSS at the doses of 1000 μg/mL or 100 μg/mL, and (2) subjecting each dispersion to centrifugation (16,000 g, 5 min) to collect supernatant. The supernatants were loaded in the apical compartments of inserts.

Molecule: COC1=CC(=O)C[C@@H](C)[C@]12Oc1c(Cl)c(OC)cc(OC)c1C2=O [griseofulvin]
solubility at 2 h [1]: ~17.5 µg/mL

Molecule: COc1cc(/C=C/C(=O)CC(=O)/C=C/c2ccc(O)c(OC)c2)ccc1O [curcumin]
solubility at 2 h (physchem; 37 °C, aqueous buffer, thermodynamic from solid): ~7.2 µg/mL (≈ 19.5 µM)

Molecule: octenylsuccinate hydroxypropyl phytoglycogen [OHPP]
increase of the solubility of curcumin in aqueous solution by use of OHPP (physchem): at least 100 times
permeation of API through Caco-2 monolayer when OHPP was used (Caco-2 cell monolayer): substantially increased

Molecule: Cc1ccc(-c2cc(C(F)(F)F)nn2-c2ccc(S(N)(=O)=O)cc2)cc1 [celecoxib]
solubility at 2 h [4]: ~12.8 µg/mL
permeation of API through Caco-2 monolayer, API alone (Caco-2 cell monolayer): not sufficient to provide an appreciable permeation

Molecule: CC(=O)O[C@@]12CO[C@@H]1C[C@H](O)[C@@]1(C)C(=O)[C@H](O)C3=C(C)[C@@H](OC(=O)[C@H](O)[C@@H](NC(=O)OC(C)(C)C)c4ccccc4)C[C@@](O)([C@@H](OC(=O)c4ccccc4)[C@H]21)C3(C)C [docetaxel]
solubility at 10 min [5]: ~11.1 µg/mL

Second part, led by results:

solubility at 10 min [2]: ~0.96 µg/mL
Molecule: CCC(C)n1ncn(-c2ccc(N3CCN(c4ccc(OCC5COC(Cn6cncn6)(c6ccc(Cl)cc6Cl)O5)cc4)CC3)cc2)c1=O (centres unmarked) [itraconazole]

solubility at 2 h [3]: ~6.2 µg/mL
Molecule: CC(=O)O[C@H]1C(=O)[C@@]2(C)[C@H]([C@H](OC(=O)c3ccccc3)[C@]3(O)C[C@H](OC(=O)[C@H](O)[C@@H](NC(=O)c4ccccc4)c4ccccc4)C(C)=C1C3(C)C)[C@]1(OC(C)=O)CO[C@@H]1C[C@@H]2O [paclitaxel]

solubility at 2 h [6]: ~13.2 µg/mL
Molecule: O=C(Nc1ccc([N+](=O)[O-])cc1Cl)c1cc(Cl)ccc1O [niclosamide]
permeation of API through Caco-2 monolayer, API alone (Caco-2 cell monolayer): not sufficient to provide an appreciable permeation
